Test results from PubChem BioAssay (NCI).
“And” between values parts separate entries of the source, which are not always exact repeats. Identical values can stand only once.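 Following 48 hours of exposure in 96-well plates, responses at five concentrations were used to interpolate endpoints linearly. GI50 = concentration required for 50% inhibition of growth. TGI is the concentration that stops growth completely.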

Legend:
Test in all cases: NCI tumour cell line growth inhibition, 48 h
DLD-1 colon = tested on: DLD-1 colon
M19-MEL melanoma = tested on: M19-MEL melanoma
XF 498 CNS = tested on: XF 498 CNS
ACHN renal = tested on: ACHN renal
HCT-116 colon = tested on: HCT-116 colon
HOP-62 NSCLC = tested on: HOP-62 NSCLC
DMS 273 small cell lung = tested on: DMS 273 small cell lung
NCI-H460 lung = tested on: NCI-H460 lung
DMS 114 small cell lung = tested on: DMS 114 small cell lung
MCF7 breast = tested on: MCF7 breast
T-47D breast = tested on: T-47D breast
SNB-78 CNS = tested on: SNB-78 CNS
LXFL 529 NSCLC = tested on: LXFL 529 NSCLC
HOP-18 NSCLC = tested on: HOP-18 NSCLC

| SMILES | TGI (ACHN renal) [µM] | TGI (HCT-116 colon) | TGI (HOP-62 NSCLC) [µM] | TGI (NCI-H460 lung) | TGI (MCF7 breast) [µM] | TGI (T-47D breast) | further results |
| --- | --- | --- | --- | --- | --- | --- | --- |
| Nc1ccc2nc(Nc3ccc(F)cc3)cnc2c1 | > 100 | > 100 µM | > 100 | > 100 µM | – | – | TGI (DLD-1 colon): > 100 µM; TGI (M19-MEL melanoma): > 100 µM; TGI (XF 498 CNS): > 100 µM; TGI (DMS 273 small cell lung): > 100 µM; TGI (DMS 114 small cell lung): > 100 µM |
| CC(=O)OC(C)C1C2=C(C(=O)CC1(C)O)C(=O)c1c(ccc(-c3ccc4c(c3O)C(=O)C3=C(C4=O)C(C(C)OC(C)=O)C(C)(O)CC3=O)c1O)C2=O (stereo unspecified) | 3.22 | 1.77 µM | 33.4 | 21.7 µM | 4.06 | 4.61 µM | TGI (DLD-1 colon): 2.43 µM; TGI (M19-MEL melanoma): 2.7 µM; TGI (SNB-78 CNS): 9.63 µM; TGI (LXFL 529 NSCLC): 1.51 µM; TGI (HOP-18 NSCLC): 1.74 µM; TGI (DMS 273 small cell lung): 3.05 µM; TGI (DMS 114 small cell lung): 1.24 µM |
| CSc1nc(Cl)c(Br)c(Sc2nc(N)nc3nc[nH]c23)n1 | 30.3 | 12.4 µM | 8.69 | 20.1 µM | – | – | TGI (DLD-1 colon): 24.4 µM; TGI (M19-MEL melanoma): 23.4 µM; TGI (XF 498 CNS): 30.1 µM; TGI (LXFL 529 NSCLC): 18.7 µM; TGI (DMS 273 small cell lung): 15.6 µM; TGI (DMS 114 small cell lung): 18.9 µM |
| N#Cc1c(Cl)cccc1Oc1ccc(S(=O)(=O)/N=C(\NN)Nc2ccc(Cl)cc2)cc1 | > 100 | 37.8 µM | 59.6 | 43.7 µM | > 100 | 48.1 µM | – |
| CC(=O)OCC(OC(C)=O)C(OC(C)=O)C(OC(C)=O)C(C=NN(C(C)=O)S(=O)(=O)c1ccc(/C=C2\NC(=O)N(C)C2=O)cc1)OC(C)=O (stereo unspecified) | > 100 | 47.2 µM and 37.4 µM | > 100 | 50.3 µM and 56.5 µM | > 100 | 76.1 µM and 91.3 µM | – |
| O=c1ccc2nc(-c3ccccc3)nn(-c3ccccn3)c-2c1 | 3.17 | 11.3 µM | 82.9 | > 100 µM | 5.88 | 6.79 µM | GI50 (MCF7 breast): 2.13 µM; GI50 (T-47D breast): 2.03 µM; GI50 (ACHN renal): 1.7 µM; GI50 (HCT-116 colon): 3.33 µM; GI50 (HOP-62 NSCLC): 21.8 µM; GI50 (NCI-H460 lung): 70.2 µM |
| Cc1ccc2ccccc2c1NC1=NCCO1 | > 100 | > 100 µM | > 100 | > 100 µM | > 100 | > 100 µM | – |
| CCOP(=O)(CCCC(O)CNc1cc(Cl)nc(N)n1)OCC (stereo unspecified) | > 100 | > 100 µM | > 100 | > 100 µM | > 100 | > 100 µM | – |
| CC(C)(C)OC(=O)c1cnc(Cl)cn1 | 99.6 | > 100 µM | > 100 | > 100 µM | > 100 | > 100 µM | – |
| COc1ccc(-c2c(=O)[nH]n3c(=S)nc(-c4ccccc4)[nH]c23)cc1OC | 51.1 | 31.4 µM | 84.9 | > 100 µM | 36.9 | 42.6 µM | – |
| COc1cc(C2c3cc(O)c(OC)cc3C3OCC2C3CO)ccc1O (stereo unspecified) | > 100 | > 100 µM | > 100 | > 100 µM | > 100 | > 100 µM | – |
| c1cc(Sc2nc(Sc3ccncc3)nc(Sc3ccncc3)n2)ccn1 | > 100 | > 100 µM | > 100 | > 100 µM | > 100 | > 100 µM | – |
| N#CCCCC[N+]12CN3CN(CN(C3)C1)C2 | > 100 | > 100 µM | > 100 | > 100 µM | > 100 | > 100 µM | – |
| CC(C)(C)C(=O)C(C(=O)C(C)(C)C)C(=O)C(C)(C)C | > 100 | > 100 µM | > 100 | > 100 µM | > 100 | > 100 µM | – |
| C=C(C)C1Cc2c(cc(O)c3c(=O)c4c(oc23)C(O)Oc2cc(OC)c(OC)cc2-4)O1 (stereo unspecified) | > 10 | > 10 µM | > 10 | > 10 µM | > 10 | > 10 µM | – |
| C#CCOc1c(C(=O)OCC)c(=O)n(C)c2ccccc12 | > 100 | – | – | > 100 µM | – | – | TGI (DLD-1 colon): > 100 µM; TGI (M19-MEL melanoma): > 100 µM; TGI (XF 498 CNS): > 100 µM; TGI (SNB-78 CNS): > 100 µM; TGI (LXFL 529 NSCLC): > 100 µM; TGI (HOP-18 NSCLC): > 100 µM; TGI (DMS 114 small cell lung): > 100 µM |
| O=C1c2ccccc2NC(=O)C2C1C(c1ccccc1)CC2(O)c1ccccc1 (stereo unspecified) | > 100 | 37.8 µM | > 100 | > 100 µM | > 100 | > 100 µM | – |

| SMILES | TGI (ACHN renal) [µM] | TGI (HCT-116 colon) | TGI (HOP-62 NSCLC) [µM] | TGI (NCI-H460 lung) | TGI (MCF7 breast) [µM] | TGI (T-47D breast) | further results |
| --- | --- | --- | --- | --- | --- | --- | --- |
| CC(=O)Nc1ccc(NC(=O)c2c(Cl)c(Cl)c(Cl)c(Cl)c2-c2nc3ccccc3[nH]2)cc1 | > 100 | > 100 µM | > 100 | > 100 µM | > 100 | > 100 µM | – |
| Nc1c2c(=O)[nH]c(=O)c2c(N)c2c(=O)c3ccccc3c(=O)c12 | 9.79 | > 100 µM | 6.85 | 2.52 µM | 2.72 | > 49.6 µM | – |
| COC(=O)c1ccccc1C1CN=NC12Cc1ccc(C)c(C)c1C2=O (stereo unspecified) | > 100 | > 100 µM | > 100 | > 100 µM | > 100 | > 100 µM | – |
| CCN1CCN(c2ccc(Nc3ccnc4ccc5c(nnn5C)c34)cc2)CC1 | 11.5 | 14.3 µM | 17.4 | 11.9 µM | 14.8 | 38.3 µM | – |
| Cn1nc2ccc3nccc(N4CCN(CCO)CC4)c3c2n1 | > 100 | > 100 µM | > 100 | > 100 µM | > 100 | > 100 µM | – |
| CC(OC(C)(C)C)[C@H](NC(=O)OC(C)(C)C)C(=O)O (stereo partly specified) | > 100 | > 100 µM | > 100 | > 100 µM | > 100 | > 100 µM | – |
| O=C1CCC(=O)N1Cc1ccccc1N=[N+]([O-])c1ccccc1CN1C(=O)CCC1=O | > 100 | > 100 µM | > 100 | > 100 µM | – | – | TGI (M19-MEL melanoma): > 100 µM; TGI (XF 498 CNS): > 100 µM; TGI (SNB-78 CNS): > 100 µM; TGI (LXFL 529 NSCLC): > 100 µM; TGI (DMS 273 small cell lung): > 100 µM; TGI (DMS 114 small cell lung): > 100 µM |
| CC1(C)O[C@@H]2[C@@H](COC(=O)c3ccccc3)C[C@@H](C#N)[C@@H]2O1 | > 100 | > 100 µM | > 100 | > 100 µM | > 100 | > 100 µM | – |
| N#CN=C(N)NC(=O)/C=C/C=C/c1ccc(Cl)cc1 | > 100 | > 100 µM | > 100 | > 100 µM | – | – | TGI (DLD-1 colon): > 100 µM; TGI (M19-MEL melanoma): > 100 µM; TGI (SNB-78 CNS): > 100 µM; TGI (LXFL 529 NSCLC): > 100 µM; TGI (HOP-18 NSCLC): > 100 µM; TGI (DMS 273 small cell lung): > 100 µM; TGI (DMS 114 small cell lung): > 100 µM |
| CC(C)=CCNc1ncnc2nc[nH]c12 | > 100 | > 100 µM | > 100 | > 100 µM | > 100 | > 100 µM | – |
| CC(=O)OCC1OC(n2c(-c3ccccc3)c(C(C)=O)c(-c3ccc(Cl)cc3)c(C#N)c2=S)C(OC(C)=O)C(OC(C)=O)C1OC(C)=O (stereo unspecified) | > 100 | > 100 µM | > 100 | > 100 µM | > 100 | > 100 µM | – |
| Cc1ccc(NC(=O)CSc2nc(C)nc3c2sc(=S)n3-c2ccccc2)cc1 | > 10 | > 10 µM | 5.08 | > 10 µM | > 10 | > 10 µM | – |
| CC(C)=NN/C(=N\S(=O)(=O)c1ccc(C)cc1)Nc1ccc(Cl)cc1 | > 100 | > 100 µM | > 100 | > 100 µM | > 100 | > 100 µM | – |
| Nc1nc(N)c(NC(=O)CCCO)c(=O)[nH]1 | > 100 | > 100 µM | > 100 | > 100 µM | > 100 | > 100 µM | – |
| COc1ccc(/C=C/C(=O)/C=C/c2ccc(OC)cc2)cc1 | > 100 | 23.3 µM | > 100 | > 100 µM | > 100 | > 100 µM | – |
| O=C(CSc1nc2ccccc2s1)c1sc2sc3ccccc3[n+]2c1[O-] | > 100 | > 100 µM | > 100 | > 100 µM | > 100 | > 100 µM | – |
| O=C1CC(O)c2c(Br)sc(Br)c21 (stereo unspecified) | 29.7 | 26.7 µM | 24.5 | 34.8 µM | 15.5 | 30.5 µM | – |
